Like-named read-outs stand apart in the source and are kept apart here.
Key:
[1] = biological target: T1, Rezeptor (Glykoprotein IIb/IIIa) (Homo sapiens, UniProt P05106+P08514); experiment: Inhibition of 125I-fibrinogen binding to its receptor on intact gel-filtered human platelets; conditions: inhibition of 125I-fibrinogen binding after stimulation with ADP (10µM), read-out: Ki (µM), ADP stimuliert
T1 construct: an intakten, gelfiltrierten Human-Thrombozyten; endogenous in cells; host or cells: intact, gel-filtered human platelets from donor blood, stimulated with ADP (10 µM)
Text: (§1) Geprüft werden die Verbindungen vor allem auf ihre hemmende Wirkung bei der Blutplättchenaggregation und der Anhaftung von Fibrinogen an Blutplättchen. Verwendet werden gefiltrierte Blutplättchen aus humanem Spenderblut, die mit ADP oder Thrombin aktiviert werden.
Geprüft wird die Hemmung der Bindung von Fibrinogen an seinen Rezeptor (Glykoprotein IIb/IIIa) an intakten, gelfiltrierten Human-Thrombozyten durch die erfindungsgemäßen Verbindungen. Angegeben ist der Ki Wert der Bindungshemmung von ^125I-Fibrinogen nach Stimulierung mit ADP (10µM).

[2] = test system: gelfiltrierter Human-Thrombozyten; experiment: Inhibition of aggregation of gel-filtered human platelets after ADP or thrombin stimulation; type: cell-based; conditions: platelet aggregation
Text: as §1
Als funktioneller Test wird die Hemmung der Aggregation gelfiltrierter Human-Thrombozyten nach ADP- oder Thrombin-Stimulierung durch die erfindungsgemäßen Verbindungen gemessen. Angegeben ist der IC50-Wert der Hemmung.

[3] = ADP-stimulated, read-out: IC50 (µM), ADP-stimuliert
[4] = thrombin-stimulated, read-out: IC50 (µM), Thrombin-stimuliert

T1 sequence (P08514 32-887 limits assumed): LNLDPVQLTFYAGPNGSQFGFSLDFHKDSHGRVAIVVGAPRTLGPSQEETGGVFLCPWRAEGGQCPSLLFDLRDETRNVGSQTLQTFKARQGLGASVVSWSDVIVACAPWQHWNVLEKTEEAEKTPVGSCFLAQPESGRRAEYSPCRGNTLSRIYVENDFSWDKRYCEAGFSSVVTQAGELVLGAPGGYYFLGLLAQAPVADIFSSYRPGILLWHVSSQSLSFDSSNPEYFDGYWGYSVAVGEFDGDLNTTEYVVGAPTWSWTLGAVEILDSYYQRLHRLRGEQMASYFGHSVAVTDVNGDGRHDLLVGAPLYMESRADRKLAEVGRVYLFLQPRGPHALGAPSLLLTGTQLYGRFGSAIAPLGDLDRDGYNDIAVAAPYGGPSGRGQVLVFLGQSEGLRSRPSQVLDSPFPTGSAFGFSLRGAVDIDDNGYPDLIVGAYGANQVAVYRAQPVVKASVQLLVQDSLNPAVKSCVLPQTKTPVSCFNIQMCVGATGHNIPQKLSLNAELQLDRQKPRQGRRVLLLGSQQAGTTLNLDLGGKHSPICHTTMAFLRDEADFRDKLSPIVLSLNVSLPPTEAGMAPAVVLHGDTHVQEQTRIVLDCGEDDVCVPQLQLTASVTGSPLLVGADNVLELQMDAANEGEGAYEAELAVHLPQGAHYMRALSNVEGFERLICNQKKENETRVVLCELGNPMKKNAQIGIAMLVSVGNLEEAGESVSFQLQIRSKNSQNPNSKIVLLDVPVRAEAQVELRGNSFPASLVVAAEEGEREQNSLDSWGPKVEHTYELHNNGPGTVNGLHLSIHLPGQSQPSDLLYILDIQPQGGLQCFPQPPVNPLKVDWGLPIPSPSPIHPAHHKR
T1 sequence (P08514 891-1039 partner limits assumed): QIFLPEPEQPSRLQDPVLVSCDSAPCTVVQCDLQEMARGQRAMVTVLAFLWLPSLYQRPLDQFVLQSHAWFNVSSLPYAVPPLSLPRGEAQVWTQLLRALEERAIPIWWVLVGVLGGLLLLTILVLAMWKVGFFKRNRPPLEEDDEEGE
T1 sequence (P05106 27-788): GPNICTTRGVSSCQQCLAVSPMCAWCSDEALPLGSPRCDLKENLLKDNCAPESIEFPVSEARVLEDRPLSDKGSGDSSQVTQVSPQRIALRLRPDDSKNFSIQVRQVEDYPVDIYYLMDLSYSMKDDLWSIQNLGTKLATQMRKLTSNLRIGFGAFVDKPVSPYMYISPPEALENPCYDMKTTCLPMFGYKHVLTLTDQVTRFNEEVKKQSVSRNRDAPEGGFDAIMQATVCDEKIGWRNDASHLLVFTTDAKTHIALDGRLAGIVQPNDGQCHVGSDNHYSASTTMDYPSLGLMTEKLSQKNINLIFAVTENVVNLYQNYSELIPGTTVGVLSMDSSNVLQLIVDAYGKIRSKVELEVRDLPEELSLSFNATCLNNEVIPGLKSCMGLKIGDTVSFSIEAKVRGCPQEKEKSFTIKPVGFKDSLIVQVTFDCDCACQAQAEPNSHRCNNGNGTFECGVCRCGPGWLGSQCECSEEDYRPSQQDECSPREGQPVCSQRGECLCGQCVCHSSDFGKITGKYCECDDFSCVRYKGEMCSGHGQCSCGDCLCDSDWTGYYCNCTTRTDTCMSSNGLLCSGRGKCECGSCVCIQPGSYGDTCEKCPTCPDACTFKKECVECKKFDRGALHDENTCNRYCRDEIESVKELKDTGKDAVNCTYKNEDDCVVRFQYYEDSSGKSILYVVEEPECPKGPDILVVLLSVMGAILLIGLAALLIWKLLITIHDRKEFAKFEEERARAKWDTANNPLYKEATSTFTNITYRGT

Structure (SMILES) | Ki [1] | IC50 [2, 3] | IC50 [2, 4]
N=C(N)NCCC[C@@H]1NC(=S)N(CC(=O)N[C@@H](CC(=O)O)C(=O)N[C@H](C(=O)O)c2ccccc2)C1=O | 0.07 µM | 0.5 µM | 0.1 µM
N=C(N)c1ccc(CC2NC(=S)N(CC(=O)N[C@@H](CC(=O)O)C(=O)N[C@H](C(=O)O)c3ccccc3)C2=O)cc1 (stereo partly drawn) [Beispiel 2, (5-(S,R)-(4-Formamidino-benzyl)-4-oxo-2-thioxoimidazolidin-3-yl)-acetyl-L-aspartyl-L-phenylglycin] | 0.2 µM | 0.55 µM | 0.2 µM
